Measured values reported in patent publication US20230019236A1, “PROTEIN TYROSINE PHOSPHATASE INHIBITORS AND METHODS OF USE THEREOF” (Calico Life Sciences LLC, priority 2019, published 2023).

Tests used:
[1] = biological target: T1, His tagged PTPN2 (TC45) protein (Homo sapiens, UniProt P17706); assay: Mobility Shift Assay used to determine potency of PTPN2 inhibitors; type: biochemical; settings: Table 2; read-out: PTPN2 MSA IC50
T1 construct: made in house
T1 sequence (P17706 with tags, fused parts or gaps isoform P17706-2): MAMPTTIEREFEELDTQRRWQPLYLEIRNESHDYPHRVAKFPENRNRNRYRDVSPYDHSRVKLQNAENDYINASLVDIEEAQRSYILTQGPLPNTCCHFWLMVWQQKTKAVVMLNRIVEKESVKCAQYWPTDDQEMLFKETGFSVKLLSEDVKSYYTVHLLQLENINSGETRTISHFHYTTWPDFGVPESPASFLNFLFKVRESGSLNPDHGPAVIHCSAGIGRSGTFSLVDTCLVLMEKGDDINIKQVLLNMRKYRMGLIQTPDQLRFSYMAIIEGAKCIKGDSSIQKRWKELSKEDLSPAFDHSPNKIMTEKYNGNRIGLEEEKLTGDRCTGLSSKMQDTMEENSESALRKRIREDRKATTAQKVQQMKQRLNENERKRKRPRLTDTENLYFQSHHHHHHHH
Method: Example 292: Mobility Shift Assay used to determine potency of PTPN2 inhibitors
Compound activity was determined using in house His tagged PTPN2 (TC45) protein (SEQ ID NO: 1) in an in vitro enzymatic reaction. The enzymatic assay used to determine activity was a mobility shift assay using a LabChip EZ Reader by Caliper Life Sciences. The enzymatic reaction was carried out in assay buffer (50 mM HEPES pH 7.5, 1 mM EGTA, 10 mM EDTA, 0.01% Tween® 20, and 2 mM DTT). The compounds were dispensed on a white 384 well ProxiPlate™ (PerkinElmer Catalog#6008289) plate using the Labcyte Echo at varying concentrations (12 point, 1:3 dilution). The enzyme (at 0.5 nM) was incubated with compound for 10 minutes at room temperature. Then the substrate (phosphorylated insulin receptor probe sequence: ((OG488)—{NH—CH2—CH2—O—CH2—CH2—O—CH2—CO)—T—R—D—I—(PY)—E—T—D—Y—Y—R—K—K—NH2) (SEQ ID NO: 2) was added at 2 μM to the plates and incubated for another 10 minutes at room temperature. Finally, a quench solution (water and 4-bromo-3-(2-oxo-2-propoxyethoxy)-5-(3-{[1-(phenylmethanesulfonyl)piperidin-4-yl]amino}phenyl)thiophene-2-carboxylic acid) was added to the plates, which were then run on the EZ Reader (excitation 488 nm, emission 530 nm) to measure % conversion (the amount of phosphorylated substrate which was de-phosphorylated by PTPN2). […] The % inhibition was then used to calculate the IC50 values.

[2] = biological target: T2, His tagged full-length PTP1B protein (Homo sapiens, UniProt P18031); assay: Mobility Shift Assay (MSA) used to determine potency of PTP1B inhibitors; type: biochemical; settings: Table 2
T2 construct: made in house
T2 sequence (P18031 with tags, fused parts or gaps): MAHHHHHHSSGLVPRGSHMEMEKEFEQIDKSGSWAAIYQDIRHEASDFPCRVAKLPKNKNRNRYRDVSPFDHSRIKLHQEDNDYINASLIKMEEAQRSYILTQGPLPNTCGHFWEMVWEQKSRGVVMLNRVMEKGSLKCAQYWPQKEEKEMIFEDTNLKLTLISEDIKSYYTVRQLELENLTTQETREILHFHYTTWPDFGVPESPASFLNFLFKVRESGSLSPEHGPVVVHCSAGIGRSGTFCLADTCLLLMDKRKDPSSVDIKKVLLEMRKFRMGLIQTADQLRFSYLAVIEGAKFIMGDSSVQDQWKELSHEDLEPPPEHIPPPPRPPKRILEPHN
Method: The enzymatic assay used to determine activity is a mobility shift assay using a LabChip EZ Reader by Caliper Life Sciences. The enzymatic reaction was carried out in assay buffer (50 mM HEPES pH 7.5, 1 mM EGTA, 10 mM EDTA, 0.01% Tween® 20, and 2 mM DTT). […] The enzyme (at 0.5 nM) was incubated with compound for 10 minutes at room temperature. […] The % inhibition was then used to calculate the IC50 values.

Row | IC50 [2] [nM] | SMILES | IC50 [1] [nM]
1 | 10 to 100 | CC(C)(C)OC(=O)NCCOc1ccc2c(F)c(N3CC(=O)NS3(=O)=O)c(O)cc2c1 [Compound 336, tert-butyl (2-{[5-fluoro-7-hydroxy-6-(1,1,4-trioxo-1λ^6,2,5-thiadiazolidin-2-yl)naphthalen-2-yl]oxy}ethyl)carbamate] | 10 to 100
2 | < 1 | CC(C)(CCN)CCOc1ccc2cc(O)c(N3CC(=O)NS3(=O)=O)c(F)c2c1 [Compound 348, 5-{7-[(5-amino-3,3-dimethylpentyl)oxy]-1-fluoro-3-hydroxynaphthalen-2-yl}-1λ^6,2,5-thiadiazolidine-1,1,3-trione] | < 1
3 | < 1 | O=C1CN(c2c(O)cc3cc(O)c(OCCC4CC4)cc3c2F)S(=O)(=O)N1 [Compound 356, 5-[7-(2-cyclopropylethoxy)-1-fluoro-3,6-dihydroxynaphthalen-2-yl]-1λ^6,2,5-thiadiazolidine-1,1,3-trione] | < 1
4 | < 1 | O=C1CN(c2c(O)cc3cc(O)c(OCCC4CCCC4)cc3c2F)S(=O)(=O)N1 [Compound 364, 5-[7-(2-cyclopentylethoxy)-1-fluoro-3,6-dihydroxynaphthalen-2-yl]-1λ^6,2,5-thiadiazolidine-1,1,3-trione] | < 1
5 | < 1 | O=C1CN(c2c(O)cc3ccc(OCCC4CCC4)cc3c2F)S(=O)(=O)N1 [Compound 353, 5-[7-(2-cyclobutylethoxy)-1-fluoro-3-hydroxynaphthalen-2-yl]-1λ^6,2,5-thiadiazolidine-1,1,3-trione] | < 1
6 | < 1 | O=C1CN(c2c(O)cc3cc(O)c(OCCC4CCOC4)cc3c2F)S(=O)(=O)N1 (stereo not drawn) [Compound 367, 5-{1-fluoro-3,6-dihydroxy-7-[2-(oxolan-3-yl)ethoxy]naphthalen-2-yl}-1λ^6,2,5-thiadiazolidine-1,1,3-trione] | < 1
7 | < 1 | CC(C)(C#N)CCOc1cc2c(F)c(N3CC(=O)NS3(=O)=O)c(O)cc2cc1O [Compound 366, 4-{[8-fluoro-3,6-dihydroxy-7-(1,1,4-trioxo-1λ^6,2,5-thiadiazolidin-2-yl)naphthalen-2-yl]oxy}-2,2-dimethylbutanenitrile] | < 1
8 | < 1 | COCCCOc1cc2c(F)c(N3CC(=O)NS3(=O)=O)c(O)cc2cc1O [Compound 368, 5-[1-fluoro-3,6-dihydroxy-7-(3-methoxypropoxy)naphthalen-2-yl]-1λ^6,2,5-thiadiazolidine-1,1,3-trione] | < 1

The next lines start with the compound.

Row | SMILES | IC50 [2] [nM] | IC50 [1] [nM]
9 | O=C1CN(c2c(O)cc3cc(OCCCC(F)F)ccc3c2F)S(=O)(=O)N1 [Compound 340, 5-[6-(4,4-difluorobutoxy)-1-fluoro-3-hydroxynaphthalen-2-yl]-1λ^6,2,5-thiadiazolidine-1,1,3-trione] | 10 to 100 | 10 to 100
10 | COc1ccc2c(F)c(N3CC(=O)NS3(=O)=O)c(O)cc2c1 [Compound 335, 5-(1-fluoro-3-hydroxy-6-methoxynaphthalen-2-yl)-11λ^6,2,5-thiadiazolidine-1,1,3-trione] | 10 to 100 | 10 to 100
11 | CC(O)(CO)CCOc1ccc2cc(O)c(N3CC(=O)NS3(=O)=O)c(F)c2c1 (stereo not drawn) [Compound 323, 5-[7-(3,4-dihydroxy-3-methylbutoxy)-1-fluoro-3-hydroxynaphthalen-2-yl]-1λ^6,2,5-thiadiazolidine-1,1,3-trione] | < 1 | < 1
12 | O=C1CN(c2c(O)cc3cc(NCCCC(F)F)ccc3c2F)S(=O)(=O)N1 [Compound 330, 5-{6-[(4,4-difluorobutyl)amino]-1-fluoro-3-hydroxynaphthalen-2-y}-1λ^6,2,5-thiadiazolidine-1,1,3-trione] | 10 to 100 | 10 to 100
13 | N#CCC1(COc2ccc3cc(O)c(N4CC(=O)NS4(=O)=O)c(F)c3c2)CC1 [Compound 130, [1-({[8-fluoro-6-hydroxy-7-(1,1,4-trioxo-1λ^6,2,5-thiadiazolidin-2-yl)naphthalen-2-yl]oxy}methyl)cyclopropyl]acetonitrile] | 1 to 10 | 1 to 10
14 | CC(C)(O)CCOc1cc2c(F)c(N3CC(=O)NS3(=O)=O)c(O)cc2cc1O [Compound 355, 5-[1-fluoro-3,6-dihydroxy-7-(3-hydroxy-3-methylbutoxy)naphthalen-2-yl]-1λ^6,2,5-thiadiazolidine-1,1,3-trione] | < 1 | < 1
15 | O=C1CN(c2c(O)cc3cc(O)ccc3c2F)S(=O)(=O)N1 [Compound 328, 5-(1-fluoro-3,6-dihydroxynaphthalen-2-yl)-1λ^6,2,5-thiadiazolidine-1,1,3-trione] | 1 to 10 | < 1
16 | O=C1CN(c2c(O)cc3cc(NCC4CC4)ccc3c2F)S(=O)(=O)N1 [Compound 331, 5-{6-[(cyclopropylmethyl)amino]-1-fluoro-3-hydroxynaphthalen-2-yl}-1λ^6,2,5-thiadiazolidine-1,1,3-trione] | 10 to 100 | 10 to 100
17 | C[C@@](O)(CO)CCOc1ccc2cc(O)c(N3CC(=O)NS3(=O)=O)c(F)c2c1 [Compound 341, 5-{7-[(3S)-3,4-dihydroxy-3-methylbutoxy]-1-fluoro-3-hydroxynaphthalen-2-yl}-1λ^6,2,5-thiadiazolidine-1,1,3-trione] | < 1 | < 1
18 | O=C1CN(c2c(O)cc3cc(O)c(OCCCC(F)F)cc3c2F)S(=O)(=O)N1 [Compound 365, 5-[7-(4,4-difluorobutoxy)-1-fluoro-3,6-dihydroxynaphthalen-2-yl]-1λ^6,2,5-thiadiazolidine-1,1,3-trione] | < 1 | < 1
19 | CC(C)CCNc1ccc2c(F)c(N3CC(=O)NS3(=O)=O)c(O)cc2c1 [Compound 332, 5-{1-fluoro-3-hydroxy-6-[(3-methylbutyl)amino]naphthalen-2-yl}-1λ^6,2,5-thiadiazolidine-1,1,3-trione] | 10 to 100 | 10 to 100
20 | CC(C)(CO)CCOc1ccc2cc(O)c(N3CC(=O)NS3(=O)=O)c(F)c2c1 [Compound 342, 5-[1-fluoro-3-hydroxy-7-(4-hydroxy-3,3-dimethylbutoxy)naphthalen-2-yl]-1λ^6,2,5-thiadiazolidine-1,1,3-trione] | < 1 | < 1
21 | Nc1ccc2c(F)c(N3CC(=O)NS3(=O)=O)c(O)cc2c1 [Compound 329, 5-(6-amino-1-fluoro-3-hydroxynaphthalen-2-yl)-1λ^6,2,5-thiadiazolidine-1,1,3-trione] | 10 to 100 | 1 to 10
22 | CC(C)CCOc1ccc2c(F)c(N3CC(=O)NS3(=O)=O)c(O)cc2c1 [Compound 339, 5-[1-fluoro-3-hydroxy-6-(3-methylbutoxy)naphthalen-2-yl]-1λ^6,2,5-thiadiazolidine-1,1,3-trione] | 10 to 100 | 10 to 100
23 | CC(C)(O)CCOc1ccc2c(F)c(N3CC(=O)NS3(=O)=O)c(O)cc2c1 [Compound 334, 5-[1-fluoro-3-hydroxy-6-(3-hydroxy-3-methylbutoxy)naphthalen-2-yl]-1λ^6,2,5-thiadiazolidine-1,1,3-trione] | > 100 | 10 to 100
24 | N#CC1(COc2ccc3cc(O)c(N4CC(=O)NS4(=O)=O)c(F)c3c2)CC1 [Compound 199, 1-({[8-fluoro-6-hydroxy-7-(1,1,4-trioxo-1λ^6,2,5-thiadiazolidin-2-yl)naphthalen-2-yl]oxy}methyl)cyclopropane-1-carbonitrile] | > 100 | 1 to 10
